Data on two compounds can be found in US12280026B2, “Use of repirinast in the prophylaxis or treatment of renal fibrosis or kidney disease” (ALGERNON PHARMACEUTICALS INC., priority 2018, dated 2025).

“Also recorded” adds a separate entry of the source. Marks after values point to notes of the source that are not given here.

Test [1] in a line: Example 1: UUO mice, mean body weight change following surgery. It counts as in vivo. As to conditions: Example 1, mostly post-surgical day 14, male C57BL/6 mice, PO QD days 1-14, doses of Table 1. As to the method:
Male 9-12 week old C57BL/6 mice of 23-25 grams body weight were used. All mice were acclimated for a minimum of 5 days prior to the start of the study and housed individually in microisolators throughout the study in a 12:12 light-dark cycle on a standard maintenance mouse chow diet (Harlan Teklad 2018) with food and water given ad libitum. Prior to surgery, all mice were weighed for baseline body weight.
The UUO surgical intervention was performed according to previously described methods known in the art (Le Meur Y et al., Macrophage accumulation at a site of renal inflammation is dependent on the M-CSF/c-fms pathway, J Leukocyte Biol., 72:530-537; 2002).
All mice were first anesthetized by intraperitoneal injection with a rodent cocktail (ketamine 10 mg/mL and Xyaline 1 mg/mL) in normal saline (10 μL/g body weight). Pedal reflex and movement of the vibrissae were used to determine the state of unconsciousness. A state of unconsciousness was confirmed after a period of about 5 minutes in all animals. All mice were then shaved on the left side of the abdomen. The shaved area was first swabbed with iodine and then swabbed with alcohol. A vertical incision was made through the skin with a #22 scalpel and the skin was then retracted. A further incision of about 2.5 cm was then made through the peritoneum avoiding any major blood vessels. The peritoneum was then retracted and the left kidney was exposed.
The left kidney was then brought to the surface by hooking the ureter directly beneath the kidney with sterile forceps and gently manipulating the kidney upward. The ureter was ligated at two points directly below the kidney with 5-0 surgical silk with excess suture cut away and discarded post-ligation. The kidney was then gently placed back to its correct anatomical position and the abdomen was lavaged with 1 mL sterile saline to replenish fluid loss. The peritoneum and then skin were sutured with 5-0 Mersilene, and the incision site was gently wiped with iodine. All mice were then placed individually in clean cages that were set on top of a thermal blanket until recovery at about 30-60 minutes later. In some examples, sham surgery was performed as a control by following all steps of the UUO surgical intervention procedure except ligation.
Following surgery, the mice were divided into 14 individual study groups of 8 mice each and, following post-surgical recovery, administered a once-daily oral treatment for 14 days. The mice in 12 of the 14 study groups (hereafter known as “treatment groups”) had all received the UUO surgical ligation and were treated individually with a distinct pharmacologic compound as set out in Table 1. The mice in 2 of the 14 study groups were treated individually with a pharmaceutically acceptable vehicle with no active ingredient. The pharmaceutically acceptable vehicle in all groups was 0.5% carboxymethyl cellulose (CMC). All mice were sacrificed with CO2 on post-surgical day 15.
The dose selected for the animal studies was determined by taking the maximum known human daily dose, dividing by the average weight of an adult (˜60-70 kg) to get a human mg/kg dose. […]
Body weight: The body weights were measured on days 1, 2, 5, 8, 10 and 14 using a laboratory balance.
Body weights were measured on post-surgical days 1, 2, 5, 8, 10 and 14 as previously described. The mean body weight change of each study group was calculated using the body weight average of all mice in each study group.

Test [2] has as its system C57BL/6 mice with UUO surgical ligation. The experiment in a line: Example 1: UUO mice, renal function evaluation (plasma BUN, creatinine). It counts as in vivo. The note with it: for BUN in comparison to control groups, in words / Reduction in levels of BUN compared to vehicle, significance in words: Example 1; for BUN in comparison to control groups, in words: UUO, male C57BL/6 mice, PO QD days 1-14, doses of Table 1; for Reduction in BUN compared to vehicle, in words, post-test not stated: Example 1 text and conclusions, Bemithyl 200, Repirinast 30, Bromantane 20, Telmisartan 5 mg/kg PO QD; for Reduction in levels of BUN compared to vehicle, significance in words: p<0.05, Tamhane post-test, Repirinast 30, Bemithyl 200, Bromantane 20 mg/kg PO QD. The procedure, abridged: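 Male C57BL/6 mice (9-12 weeks, 23-25 g) had the left ureter ligated at two points (sham controls unligated), then received once-daily oral compound or 0.5% CMC vehicle for 14 days; doses scaled from maximum human daily dose ×12. Sacrifice on day 15; plasma urea nitrogen and creatinine measured, BUN averaged per group (n = 8).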

Test [3] in a line: Example 2: UUO mice, mean body weight change following surgery. It counts as in vivo, C57BL/6 mice. As to conditions: for Mean Body Weight Change Following Surgery, Day 1 / Mean Body Weight Change Following Surgery, Day 4 / Mean Body Weight Change Following Surgery, Day 7 / Mean Body Weight Change Following Surgery, Day 10 / Mean Body Weight Change Following Surgery, Day 14: UUO, female C57BL/6 mice, PO QD days 1-14, mg/kg: Telmisartan 3, Bemithyl 200, Repirinast 30, Telmisartan+Bemithyl 3+200, Telmisartan+Repirinast 3+30, Cenicriviroc 40, Bromantane 40; for Body weight course after surgery, in words: Example 2, mg/kg PO QD: Repirinast 30, Bemithyl 200, Bromantane 40, Telmisartan+Bemithyl 3+200. On the procedure:
(§1) In this example, healthy young female C57BL/6 mice were used for the study. At the commencement of the study, mice were between 9-12 weeks of age, weighing 23-25 g. All the mice were obtained from Charles River Laboratories.
(§2) The mice were maintained in a controlled environment with a temp 70-72° F., humidity 30-70%, with a photo cycle of 12 hours of light and 12 hours of dark. They were provided with Harlan Teklad 2018 standard maintenance mouse chow diet and drinking water ad libitium.
(§3) After five days of acclimatization, the mice were grouped according to their body weight. There were ten groups of ten mice each. Nine groups of ten mice each underwent UUO as described above and the other group of ten mice underwent a sham procedure to serve as a no-surgery control.
(§4) Following surgery, the mice were divided into 10 individual study groups of 10 mice each and, following post-surgical recovery, administered a once-daily oral treatment for 14 days. The mice in 8 of the 10 study groups had all received the UUO surgical ligation and were treated individually with a distinct pharmacologic compound as set out in Table 6. The mice in 2 of the 10 study groups were treated individually with a pharmaceutically acceptable vehicle with no active ingredient. The pharmaceutically acceptable vehicle in all groups was 0.5% carboxymethyl cellulose (CMC). All mice were sacrificed with CO2 on post-surgical day 15.
(§5) The dose selected for the animal studies was determined by taking the maximum known human daily dose, dividing by the average weight of an adult (˜60-70 kg) to get a human mg/kg dose. That number was multiplied by 12 to convert to a mouse dose based on conventional dosing tables. See Nair and Jacob, J Basic Clin Pharm March 2016-May 2016, 7(2):27-31.
Body weight: The body weights were measured on days 1, 4, 7, 10 and 14 using a laboratory balance.
Body weights were measured on post-surgical days 1, 4, 7, 10 and 14 as previously described. The mean body weight change of each study group was calculated using the body weight average of all mice in each study group.

Test [4] has as its system C57BL/6 mice with UUO surgical ligation. The experiment in a line: Example 2: UUO mice, kidney weight evaluation. Type of test: in vivo. As to conditions: for Drained Left Kidney: ligated kidney drained; for Drained Left Kidney / Excised Left Kidney / Right Kidney (g): group mean, UUO, female C57BL/6 mice, PO QD days 1-14, mg/kg: Telmisartan 3, Bemithyl 200, Repirinast 30, Telmisartan+Bemithyl 3+200, Telmisartan+Repirinast 3+30, Cenicriviroc 40, Bromantane 40; for Excised Left Kidney: ligated kidney; for Right Kidney (g): unligated kidney. On the procedure: as §1, §2, §3, §4, §5
Kidney weight: The UUO was then examined in situ to ensure that the surgical ligation ties remained patent. Both the ligated (UUO) and non-ligated kidneys were removed for analysis. Weights of both kidneys were measured using a laboratory balance.
The data are presented as the mean obtained from Microsoft Excel or GraphPad Prism version 5.00 for Windows (GraphPad Software, San Diego California USA). Data were analyzed using two-way ANOVA using Bonferroni and Tamhane post-tests. Differences between groups were considered significant at p<0.05.
Kidney Weight Evaluation: Kidney weight, which indicates functional and pathological changes in the kidney, was evaluated by measuring the weight of both the ligated (UUO) and non-ligated kidneys as previously described. The ligated and non-ligated kidney weights of each study group consisted of the respective kidney weight averages of all mice in each study group.

In the case of `CCSc1nc2ccccc2[nH]1` [Bemithyl, 2-Ethylsulfanyl-1H-benzoimidazole], the “Mean body weight change, comparison with control groups, in words” value in test [1] is reported as “even greater than that of the sham surgery control group; also recorded: appeared to reverse the negative effects of UUO on body weight gain”. Also, in test [2], the “BUN in comparison to control groups, in words” value is “less renal dysfunction and disease progression than the positive control treatment; also recorded: decreased in comparison to the sham surgery control group; also recorded: most improved renal function of all”; the “Reduction in BUN compared to vehicle, in words, post-test not stated” value is reported as “reduction in BUN compared to vehicle”; the “Reduction in levels of BUN compared to vehicle, significance in words” value is listed as “significant reductions in the levels of BUN”. Also, in test [3], the “Mean Body Weight Change Following Surgery, Day 1” value is reported as 0 g; the “Mean Body Weight Change Following Surgery, Day 4” value is listed as 0.16 g; the “Mean Body Weight Change Following Surgery, Day 7” value came out at 0.16 g; the “Mean Body Weight Change Following Surgery, Day 10” value came out at 0.36 g. In test [3], the “Mean Body Weight Change Following Surgery, Day 14” value stood at 0.54 g and the “Body weight course after surgery, in words” value is recorded as “no initial decrease in body weight; also recorded: even greater than that of the sham surgery control group; also recorded: appeared to reverse the negative effects of UUO on body weight gain”. In addition, the “Weight of the drained left kidney compared to the vehicle group, in words” value in test [4] (Example 2, Telmisartan 3 + Repirinast 30 mg/kg, Bemithyl 200 mg/kg) is “a similar effect was observed”. Moreover, in test [4], the “Drained Left Kidney” value turned out to be 0.1565 g, the “Excised Left Kidney” value came to 0.398 g and the “Right Kidney (g)” value was 0.1333* g.

In the case of `Brc1ccc(NC2C3CC4CC(C3)CC2C4)cc1` (stereo not drawn) [Bromantane, N-(4-Bromophenyl)adamantan-2-amine], in test [1], the “Mean body weight change, comparison with control groups, in words” value is “comparable to that of the surgery vehicle control group”. Further, in test [2], the “BUN in comparison to control groups, in words” value is “less renal dysfunction and disease progression than the positive control treatment; also recorded: decreased in comparison to the sham surgery control group”; the “Reduction in BUN compared to vehicle, in words, post-test not stated” value is listed as “significant reductions in BUN compared to vehicle”; the “Reduction in levels of BUN compared to vehicle, significance in words” value is reported as “significant reductions in the levels of BUN”. In test [3], the “Mean Body Weight Change Following Surgery, Day 1” value came to 0 g; the “Mean Body Weight Change Following Surgery, Day 4” value was found to be 0.11 g; the “Mean Body Weight Change Following Surgery, Day 7” value came out at 0.36 g; the “Mean Body Weight Change Following Surgery, Day 10” value is given as 0.15 g. Also, in test [3], the “Mean Body Weight Change Following Surgery, Day 14” value is reported as 0.55 g and the “Body weight course after surgery, in words” value was “no initial decrease in body weight; also recorded: appeared to reverse the negative effects of UUO on body weight gain”. Also, in test [4], the “Drained Left Kidney” value is reported as 0.1775 g, the “Excised Left Kidney” value came out at 0.3995 g and the “Right Kidney (g)” value is 0.143* g.
